Assay results from ChEMBL document CHEMBL4049403, “Oligo-aspartic acid conjugates with benzo[c][2,6]naphthyridine-8-carboxylic acid scaffold as picomolar inhibitors of CK2” (Bioorg Med Chem, 2017).
Where a SMILES comes first, the peptide text is derived from it. The star is where a group is joined. X1 = O=C(O)c1ccc2c(c1)nc(OCCCCCCCCC(=O)*)c1ccncc12

Experiments:
Homo sapiens = organism: Homo sapiens; test: Inhibition of human CK2 assessed as residual activity at 1 uM in presence of 33P-ATP by filter-binding assay relative to control
[1] = molecular target: Homeodomain-interacting protein kinase 2 (Homo sapiens) (UniProt Q9H2X6); test: Inhibition of human HIPK2 assessed as residual activity at 1 uM in presence of 33P-ATP by filter-binding assay relative to control
[2] = molecular target: Dual specificity tyrosine-phosphorylation-regulated kinase 1A (Homo sapiens) (UniProt Q13627); test: Inhibition of human DYRK1A assessed as residual activity at 1 uM in presence of 33P-ATP by filter-binding assay relative to control
[3] = molecular target: Dual specificity protein kinase CLK2 (Homo sapiens) (UniProt P49760); test: Inhibition of human CLK2 assessed as residual activity at 1 uM in presence of 33P-ATP by filter-binding assay relative to control
[4] = molecular target: Mitogen-activated protein kinase kinase kinase 11 (Homo sapiens) (UniProt Q16584); test: Inhibition of human MLK3 assessed as residual activity at 1 uM in presence of 33P-ATP by filter-binding assay relative to control
[5] = molecular target: Serine/threonine-protein kinase TBK1 (Homo sapiens) (UniProt Q9UHD2); test: Inhibition of human TBK1 assessed as residual activity at 1 uM in presence of 33P-ATP by filter-binding assay relative to control
Sequence of Serine/threonine-protein kinase TBK1 (Homo sapiens) (Q9UHD2 whole entry): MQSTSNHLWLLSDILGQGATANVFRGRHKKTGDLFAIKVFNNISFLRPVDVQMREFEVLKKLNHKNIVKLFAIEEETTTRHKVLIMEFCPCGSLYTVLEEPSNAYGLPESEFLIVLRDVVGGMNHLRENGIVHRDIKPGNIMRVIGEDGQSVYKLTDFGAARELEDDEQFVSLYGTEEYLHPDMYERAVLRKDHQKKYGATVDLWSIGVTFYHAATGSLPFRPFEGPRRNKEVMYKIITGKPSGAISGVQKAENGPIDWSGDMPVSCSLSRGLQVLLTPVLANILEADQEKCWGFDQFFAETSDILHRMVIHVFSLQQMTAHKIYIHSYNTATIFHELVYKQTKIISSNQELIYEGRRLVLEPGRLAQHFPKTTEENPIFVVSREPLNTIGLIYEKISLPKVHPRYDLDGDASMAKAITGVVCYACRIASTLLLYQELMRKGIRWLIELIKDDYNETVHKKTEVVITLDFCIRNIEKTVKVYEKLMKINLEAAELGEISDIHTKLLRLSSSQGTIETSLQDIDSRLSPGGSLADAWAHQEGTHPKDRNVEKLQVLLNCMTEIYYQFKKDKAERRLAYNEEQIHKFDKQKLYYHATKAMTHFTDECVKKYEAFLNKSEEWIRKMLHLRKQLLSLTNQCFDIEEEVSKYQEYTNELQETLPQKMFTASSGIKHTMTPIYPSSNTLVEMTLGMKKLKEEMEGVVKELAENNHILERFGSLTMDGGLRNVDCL

[6] = molecular target: Ribosomal protein S6 kinase alpha-3 (Homo sapiens) (UniProt P51812); test: Inhibition of human RSK2 assessed as residual activity at 1 uM in presence of 33P-ATP by filter-binding assay relative to control
[7] = molecular target: Serine/threonine-protein kinase BRSK1 (Homo sapiens) (UniProt Q8TDC3); test: Inhibition of human BRSK1 assessed as residual activity at 1 uM in presence of 33P-ATP by filter-binding assay relative to control
[8] = molecular target: Serine/threonine-protein kinase pim-1 (Homo sapiens) (UniProt P11309); test: Inhibition of human PIM1 assessed as residual activity at 1 uM in presence of 33P-ATP by filter-binding assay relative to control
Sequence of Serine/threonine-protein kinase pim-1 (Homo sapiens) (P11309 whole entry, looked up): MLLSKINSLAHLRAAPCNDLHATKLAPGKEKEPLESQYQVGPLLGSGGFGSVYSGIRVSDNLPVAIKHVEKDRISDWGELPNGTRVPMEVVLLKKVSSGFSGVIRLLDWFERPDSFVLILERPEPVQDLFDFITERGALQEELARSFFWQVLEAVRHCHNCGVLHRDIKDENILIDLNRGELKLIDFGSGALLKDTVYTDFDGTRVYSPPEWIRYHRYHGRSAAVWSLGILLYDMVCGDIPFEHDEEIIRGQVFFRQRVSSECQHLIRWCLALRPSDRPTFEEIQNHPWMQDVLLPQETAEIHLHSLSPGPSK

[9] = molecular target: Serine/threonine-protein kinase TAO1 (Homo sapiens) (UniProt Q7L7X3); test: Inhibition of human TAO1 assessed as residual activity at 1 uM in presence of 33P-ATP by filter-binding assay relative to control
Sequence of Serine/threonine-protein kinase TAO1 (Homo sapiens) (Q7L7X3 whole entry): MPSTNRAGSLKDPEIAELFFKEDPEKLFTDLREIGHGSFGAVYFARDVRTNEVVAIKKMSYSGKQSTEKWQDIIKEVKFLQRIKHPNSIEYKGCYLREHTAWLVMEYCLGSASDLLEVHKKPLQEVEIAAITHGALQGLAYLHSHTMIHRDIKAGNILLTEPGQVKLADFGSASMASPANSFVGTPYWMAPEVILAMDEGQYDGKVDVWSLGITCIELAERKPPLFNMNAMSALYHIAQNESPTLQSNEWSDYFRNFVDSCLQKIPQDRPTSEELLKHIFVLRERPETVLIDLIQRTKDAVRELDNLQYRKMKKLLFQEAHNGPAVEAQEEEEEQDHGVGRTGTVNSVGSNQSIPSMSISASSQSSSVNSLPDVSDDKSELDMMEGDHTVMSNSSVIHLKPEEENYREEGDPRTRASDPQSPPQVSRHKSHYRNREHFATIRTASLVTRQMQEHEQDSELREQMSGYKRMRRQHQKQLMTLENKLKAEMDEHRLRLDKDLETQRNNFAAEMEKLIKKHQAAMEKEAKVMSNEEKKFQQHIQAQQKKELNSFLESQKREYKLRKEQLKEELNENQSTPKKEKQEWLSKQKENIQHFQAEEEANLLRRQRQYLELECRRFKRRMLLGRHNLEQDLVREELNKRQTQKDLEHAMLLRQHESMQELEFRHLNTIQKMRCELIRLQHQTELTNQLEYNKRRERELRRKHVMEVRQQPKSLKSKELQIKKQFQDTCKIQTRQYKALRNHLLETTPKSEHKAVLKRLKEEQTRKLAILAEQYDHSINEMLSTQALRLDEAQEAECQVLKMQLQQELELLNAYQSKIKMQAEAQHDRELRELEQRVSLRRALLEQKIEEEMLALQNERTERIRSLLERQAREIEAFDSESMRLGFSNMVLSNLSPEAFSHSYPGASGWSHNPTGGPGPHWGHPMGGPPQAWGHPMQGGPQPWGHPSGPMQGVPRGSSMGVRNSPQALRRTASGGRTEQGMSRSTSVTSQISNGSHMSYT

[10] = molecular target: Tyrosine-protein kinase JAK2 (Homo sapiens) (UniProt O60674); test: Inhibition of human JAK2 assessed as residual activity at 1 uM in presence of [33P]ATP by filter binding assay relative to control
[11] = molecular target: Serine/threonine-protein kinase MARK2 (Homo sapiens) (UniProt Q7KZI7); test: Inhibition of human MARK2 assessed as residual activity at 1 uM in presence of [33P]ATP by filter binding assay relative to control
[12] = molecular target: Tyrosine-protein kinase CSK (Homo sapiens) (UniProt P41240); test: Inhibition of human CSK assessed as residual activity at 1 uM in presence of [33P]ATP by filter binding assay relative to control
[13] = molecular target: Serine/threonine-protein kinase STK11 (Homo sapiens) (UniProt Q15831); test: Inhibition of human LKB1 assessed as residual activity at 1 uM in presence of [33P]ATP by filter binding assay relative to control
[14] = molecular target: Tyrosine-protein kinase SYK (Homo sapiens) (UniProt P43405); test: Inhibition of human SYK assessed as residual activity at 1 uM in presence of [33P]ATP by filter binding assay relative to control
[15] = molecular target: MAP/microtubule affinity-regulating kinase 3 (Homo sapiens) (UniProt P27448); test: Inhibition of human MARK3 assessed as residual activity at 1 uM in presence of [33P]ATP by filter binding assay relative to control
Sequence of MAP/microtubule affinity-regulating kinase 3 (Homo sapiens) (P27448 whole entry, looked up): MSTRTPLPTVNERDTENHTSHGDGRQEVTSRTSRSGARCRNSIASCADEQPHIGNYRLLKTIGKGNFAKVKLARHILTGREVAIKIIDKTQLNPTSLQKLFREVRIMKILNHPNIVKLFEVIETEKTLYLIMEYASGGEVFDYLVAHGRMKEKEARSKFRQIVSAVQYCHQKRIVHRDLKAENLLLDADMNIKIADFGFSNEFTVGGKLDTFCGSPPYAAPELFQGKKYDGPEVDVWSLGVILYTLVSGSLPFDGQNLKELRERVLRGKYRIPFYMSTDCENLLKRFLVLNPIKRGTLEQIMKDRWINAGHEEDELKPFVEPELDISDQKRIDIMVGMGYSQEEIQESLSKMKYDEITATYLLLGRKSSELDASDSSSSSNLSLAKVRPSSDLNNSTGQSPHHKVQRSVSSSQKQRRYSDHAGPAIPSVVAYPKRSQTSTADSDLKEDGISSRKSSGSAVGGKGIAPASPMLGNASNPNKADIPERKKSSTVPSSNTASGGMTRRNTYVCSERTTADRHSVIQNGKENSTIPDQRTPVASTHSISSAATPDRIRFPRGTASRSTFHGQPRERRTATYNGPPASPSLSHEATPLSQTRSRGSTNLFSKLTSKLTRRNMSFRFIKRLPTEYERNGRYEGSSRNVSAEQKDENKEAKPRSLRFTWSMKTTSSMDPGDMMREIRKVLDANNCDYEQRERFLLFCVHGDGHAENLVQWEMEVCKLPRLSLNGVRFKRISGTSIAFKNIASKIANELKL

[16] = molecular target: Serine/threonine-protein kinase Nek6 (Homo sapiens) (UniProt Q9HC98); test: Inhibition of human NEK6 assessed as residual activity at 1 uM in presence of [33P]ATP by filter binding assay relative to control
Sequence of Serine/threonine-protein kinase Nek6 (Homo sapiens) (Q9HC98 whole entry): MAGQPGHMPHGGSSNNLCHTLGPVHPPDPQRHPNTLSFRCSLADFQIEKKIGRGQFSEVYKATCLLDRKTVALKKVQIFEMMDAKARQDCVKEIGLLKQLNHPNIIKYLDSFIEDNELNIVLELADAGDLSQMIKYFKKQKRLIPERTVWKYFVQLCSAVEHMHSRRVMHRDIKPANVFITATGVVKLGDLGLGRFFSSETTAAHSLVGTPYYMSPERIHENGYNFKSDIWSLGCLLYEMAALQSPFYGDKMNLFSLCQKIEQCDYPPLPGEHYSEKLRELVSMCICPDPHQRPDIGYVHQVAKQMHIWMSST

[17] = molecular target: Tyrosine-protein kinase Yes (Homo sapiens) (UniProt P07947); test: Inhibition of human YES1 assessed as residual activity at 1 uM in presence of [33P]ATP by filter binding assay relative to control
[18] = molecular target: MAP/microtubule affinity-regulating kinase 4 (Homo sapiens) (UniProt Q96L34); test: Inhibition of human MARK4 assessed as residual activity at 1 uM in presence of [33P]ATP by filter binding assay relative to control
[19] = molecular target: Insulin receptor-related protein (Homo sapiens) (UniProt P14616); test: Inhibition of human IRR assessed as residual activity at 1 uM in presence of [33P]ATP by filter binding assay relative to control
[20] = molecular target: Maternal embryonic leucine zipper kinase (Homo sapiens) (UniProt Q14680); test: Inhibition of human MELK assessed as residual activity at 1 uM in presence of [33P]ATP by filter binding assay relative to control
Sequence of Maternal embryonic leucine zipper kinase (Homo sapiens) (Q14680 whole entry, looked up): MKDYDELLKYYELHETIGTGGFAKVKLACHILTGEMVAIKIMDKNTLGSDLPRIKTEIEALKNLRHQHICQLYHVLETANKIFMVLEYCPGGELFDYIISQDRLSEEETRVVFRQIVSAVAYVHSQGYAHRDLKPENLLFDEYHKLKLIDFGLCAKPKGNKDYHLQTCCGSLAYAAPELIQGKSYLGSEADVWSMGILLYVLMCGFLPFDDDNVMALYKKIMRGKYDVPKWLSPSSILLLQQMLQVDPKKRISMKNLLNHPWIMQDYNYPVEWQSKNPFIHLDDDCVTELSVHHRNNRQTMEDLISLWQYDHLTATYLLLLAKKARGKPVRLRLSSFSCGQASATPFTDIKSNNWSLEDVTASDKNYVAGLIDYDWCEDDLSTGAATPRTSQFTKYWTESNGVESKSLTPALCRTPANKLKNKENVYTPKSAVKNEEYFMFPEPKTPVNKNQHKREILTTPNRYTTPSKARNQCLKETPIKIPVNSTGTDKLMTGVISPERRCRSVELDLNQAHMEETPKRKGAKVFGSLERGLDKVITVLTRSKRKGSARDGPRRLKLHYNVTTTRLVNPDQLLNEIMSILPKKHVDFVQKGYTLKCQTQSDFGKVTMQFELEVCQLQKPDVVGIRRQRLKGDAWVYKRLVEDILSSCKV

[21] = molecular target: Mitogen-activated protein kinase 10 (Homo sapiens) (UniProt P53779); test: Inhibition of human JNK3 assessed as residual activity at 1 uM in presence of [33P]ATP by filter binding assay relative to control
[22] = molecular target: Serine/threonine-protein kinase PAK 5 (Homo sapiens) (UniProt Q9P286); test: Inhibition of human PAK5 assessed as residual activity at 1 uM in presence of [33P]ATP by filter binding assay relative to control
Sequence of Serine/threonine-protein kinase PAK 5 (Homo sapiens) (Q9P286 whole entry, looked up): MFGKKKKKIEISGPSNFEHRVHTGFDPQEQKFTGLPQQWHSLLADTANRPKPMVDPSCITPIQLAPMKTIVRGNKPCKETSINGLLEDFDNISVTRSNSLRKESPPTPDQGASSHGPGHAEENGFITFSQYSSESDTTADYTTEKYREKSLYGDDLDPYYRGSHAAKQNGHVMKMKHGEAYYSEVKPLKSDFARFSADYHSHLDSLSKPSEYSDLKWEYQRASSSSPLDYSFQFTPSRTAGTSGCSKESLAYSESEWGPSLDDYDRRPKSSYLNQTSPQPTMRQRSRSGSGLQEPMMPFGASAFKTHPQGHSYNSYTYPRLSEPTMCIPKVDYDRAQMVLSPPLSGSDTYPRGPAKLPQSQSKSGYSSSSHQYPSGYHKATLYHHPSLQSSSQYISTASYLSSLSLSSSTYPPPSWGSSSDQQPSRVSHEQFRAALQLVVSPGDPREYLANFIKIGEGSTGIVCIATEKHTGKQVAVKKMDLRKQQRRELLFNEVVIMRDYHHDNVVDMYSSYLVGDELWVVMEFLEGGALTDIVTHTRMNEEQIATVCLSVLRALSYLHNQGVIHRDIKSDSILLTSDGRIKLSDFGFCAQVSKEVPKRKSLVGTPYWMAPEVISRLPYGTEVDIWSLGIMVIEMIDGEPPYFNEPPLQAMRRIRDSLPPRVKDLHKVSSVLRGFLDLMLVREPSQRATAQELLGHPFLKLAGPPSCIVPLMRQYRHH

[23] = molecular target: Serine/threonine-protein kinase SIK2 (Homo sapiens) (UniProt Q9H0K1); test: Inhibition of human SIK2 assessed as residual activity at 1 uM in presence of [33P]ATP by filter binding assay relative to control
[24] = molecular target: Interleukin-1 receptor-associated kinase 4 (Homo sapiens) (UniProt Q9NWZ3); test: Inhibition of human IRAK4 assessed as residual activity at 1 uM in presence of [33P]ATP by filter binding assay relative to control
[25] = molecular target: Ephrin type-A receptor 4 (Homo sapiens) (UniProt P54764); test: Inhibition of human EPH-A4 assessed as residual activity at 1 uM in presence of [33P]ATP by filter binding assay relative to control
[26] = molecular target: Mitogen-activated protein kinase 3 (Homo sapiens) (UniProt P27361); test: Inhibition of human ERK1 assessed as residual activity at 1 uM in presence of [33P]ATP by filter binding assay relative to control
[27] = molecular target: Serine/threonine-protein kinase PAK 4 (Homo sapiens) (UniProt O96013); test: Inhibition of human PAK4 assessed as residual activity at 1 uM in presence of [33P]ATP by filter binding assay relative to control
[28] = molecular target: Mitogen-activated protein kinase 11 (Homo sapiens) (UniProt Q15759); test: Inhibition of human P38b MAPK assessed as residual activity at 1 uM in presence of [33P]ATP by filter binding assay relative to control
Sequence of Mitogen-activated protein kinase 11 (Homo sapiens) (Q15759 whole entry): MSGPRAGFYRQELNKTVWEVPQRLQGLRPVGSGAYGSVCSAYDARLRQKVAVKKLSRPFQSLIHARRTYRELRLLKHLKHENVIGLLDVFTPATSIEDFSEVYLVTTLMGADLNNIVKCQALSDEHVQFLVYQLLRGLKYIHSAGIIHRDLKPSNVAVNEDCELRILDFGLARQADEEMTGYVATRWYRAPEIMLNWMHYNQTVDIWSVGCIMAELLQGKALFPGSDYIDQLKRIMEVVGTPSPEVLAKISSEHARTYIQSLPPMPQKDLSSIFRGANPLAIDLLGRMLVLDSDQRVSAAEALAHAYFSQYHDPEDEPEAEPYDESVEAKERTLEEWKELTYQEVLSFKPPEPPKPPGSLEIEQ

[29] = molecular target: Mitogen-activated protein kinase kinase kinase 5 (Homo sapiens) (UniProt Q99683); test: Inhibition of human ASK1 assessed as residual activity at 1 uM in presence of [33P]ATP by filter binding assay relative to control

## NCCCC[C@H](NC(=O)[C@H](CC(=O)O)NC(=O)[C@H](CC(=O)O)NC(=O)[C@H](CC(=O)O)NC(=O)[C@H](CC(=O)O)NC(=O)[C@H](CC(=O)O)NC(=O)[C@H](CC(=O)O)NC(=O)CCCCCCCCOc1nc2cc(C(=O)O)ccc2c2cnccc12)C(=O)O (X1-DDDDDDK-OH)
Homo sapiens
  Activity: 1%
[1]
  Activity: 5%
[2]
  Activity: 9%
[3]
  Activity: 19%
[4]
  Activity: 22%
[5]
  Activity: 34%
[6]
  Activity: 62%
[7]
  Activity: 63%
[8]
  Activity: 64%
[9]
  Activity: 65%
[10]
  Activity: 72%
[11]
  Activity: 75%
[12]
  Activity: 77%
[13]
  Activity: 83%
[14]
  Activity: 84%
[15]
  Activity: 84%
[16]
  Activity: 90%
[17]
  Activity: 91%
[18]
  Activity: 91%
[19]
  Activity: 92%
[20]
  Activity: 93%
[21]
  Activity: 94%
[22]
  Activity: 97%
[23]
  Activity: 99%
[24]
  Activity: 103%
[25]
  Activity: 104%
[26]
  Activity: 106%
[27]
  Activity: 107%
[28]
  Activity: 107%
[29]
  Activity: 118%
